# Test results taken from ChEMBL document CHEMBL1126802, “Structure-affinity relationship studies on 5-HT1A receptor ligands. 1. Heterobicyclic phenylpiperazines with N4-alkyl substituents” (J Med Chem, 1993).
# What was measured:
# [1] = biological target: T1, 5-hydroxytryptamine receptor 1A (Rattus norvegicus, UniProt P19327); experiment: Displacement of radioligand [3H]2-(di-N-propylamino)-8-hydroxytetralin from 5-hydroxytryptamine 1A receptor in rat frontal cortex homogenate; format: tissue-based
# T1 sequence (P19327 whole entry): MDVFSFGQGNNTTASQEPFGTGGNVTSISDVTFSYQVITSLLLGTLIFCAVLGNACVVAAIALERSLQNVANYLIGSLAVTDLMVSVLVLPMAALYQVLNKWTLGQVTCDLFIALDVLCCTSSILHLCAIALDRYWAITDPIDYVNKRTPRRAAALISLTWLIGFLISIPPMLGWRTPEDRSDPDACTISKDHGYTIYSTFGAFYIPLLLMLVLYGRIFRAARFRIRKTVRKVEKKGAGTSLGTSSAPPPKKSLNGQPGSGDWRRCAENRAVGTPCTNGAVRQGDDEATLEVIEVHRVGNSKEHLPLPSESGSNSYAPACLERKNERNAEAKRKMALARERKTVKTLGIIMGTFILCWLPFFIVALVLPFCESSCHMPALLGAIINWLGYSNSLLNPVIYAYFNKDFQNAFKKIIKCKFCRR
# Opioid receptor [2] = biological target: T2, Opioid receptor (Mus musculus, UniProt P42866+P32300+P33534); experiment: Tested for displacement of radioligand [3H]-Naloxone from opiate receptor; format: protein assay
# Opioid receptor [3] = biological target: T2, Opioid receptor; experiment: Tested for displacement of radioligand [3H]-Naloxone from opiate receptor; value ranges from 7-10 uM; format: protein assay
# [4] = Ionization at 37 degree C; format: ADME
# [5] = Ionization at 25 degree C; format: ADME
# [6] = biological target: T1, 5-hydroxytryptamine receptor 1A; experiment: Displacement of radioligand [3H]2-(di-N-propylamino)-8-hydroxytetralin from 5-hydroxytryptamine 1A receptor in rat frontal cortex homogenate (experiment 1); format: tissue-based
# [7] = Ionization at 20 degree C; format: ADME
# [8] = Ionization at 45 degree C; format: ADME
# [9] = Ionization at 30 degree C; format: ADME
structure (smiles),measurement,setting,value
COc1ccccc1N1CCNCC1,Ki,[1],0.17 µM
CCCCCCN1CCC(C(=O)CC)(c2cccc(O)c2)CC1,IC50,Opioid receptor [2],20 µM
CCCCCCCCCCN1CCN(c2cccc3c2OCCO3)CC1,Ki,[1],0.001 µM
CCC(=O)C1(c2cccc(O)c2)CCN(C)CC1 [KETOBEMIDONE],IC50,Opioid receptor [3],7 µM
CCCCN1CCC(C(=O)OCC)(c2ccccc2)CC1,IC50,Opioid receptor [2],0.9 µM
CCCCN1CCN(c2cccc3ccoc23)CC1,pKa,[4],7.77
same,Ki,[1],0.0059 µM
CCCN1CCC(C(=O)CC)(c2cccc(O)c2)CC1,IC50,Opioid receptor [2],200 µM
CCCCCCN1CCN(c2cccc3ccoc23)CC1,Ki,[1],0.00054 µM
c1cc2c(c(N3CCN(CC4CCCCC4)CC3)c1)OCCO2,Ki,[1],0.011 µM
CCCCCCCCCCN1CCN(c2cccc3ccoc23)CC1,Ki,[1],0.008 µM
CCCCCCCCN1CCC(C(=O)CC)(c2cccc(O)c2)CC1,IC50,Opioid receptor [2],200 µM
CCCCCCCCN1CCN(c2cccc3ccoc23)CC1,Ki,[1],0.0017 µM
CCCCCN1CCN(c2cccc(Cl)c2)CC1,pKa,[5],> 7.4
same,pKa,[4],> 7.2
same,Ki,[6],0.0078 µM
same,pKa,[7],> 7.4
same,pKa,[8],> 7
same,pKa,[9],> 7.5
CCCCCN1CCC(C(=O)CC)(c2cccc(O)c2)CC1,IC50,Opioid receptor [2],8 µM
CC(C)CN1CCN(c2cccc3ccoc23)CC1,Ki,[1],0.064 µM
CCCCCCCCCN1CCC(C(=O)OCC)(c2ccccc2)CC1,IC50,Opioid receptor [2],0.15 µM
CC(C)N1CCN(c2cccc3ccoc23)CC1,Ki,[1],0.056 µM
CCCCN1CCC(C(=O)CC)(c2cccc(O)c2)CC1,IC50,Opioid receptor [2],50 µM
CCCN1CCC(C(=O)OCC)(c2ccccc2)CC1,IC50,Opioid receptor [2],4 µM
O=C1c2ccccc2S(=O)(=O)N1CCCCN1CCN(c2ncccn2)CC1 [IPSAPIRONE],Ki,[1],0.0055 µM
CCCN1CCN(c2cccc3ccoc23)CC1,pKa,[4],7.84
same,Ki,[1],0.029 µM
CCCCCCCN1CCC(C(=O)CC)(c2cccc(O)c2)CC1,IC50,Opioid receptor [2],20 µM
CCCN1CCN(c2cccc3c2OCCO3)CC1,pKa,[4],8.02
same,pKa,[7],8.36
same,Ki,[1],0.08 µM
CCCCCCN1CCC(C(=O)OCC)(c2ccccc2)CC1,IC50,Opioid receptor [2],0.2 µM
CCCCN1CCN(c2cccc3c2OCCO3)CC1,pKa,[4],8.06
same,pKa,[7],8.41
same,Ki,[1],0.012 µM
c1cc(N2CCN(CC3CCCCC3)CC2)c2occc2c1,Ki,[1],0.0077 µM
CCOC(=O)C1(c2ccccc2)CCN(CC)CC1,IC50,Opioid receptor [2],5 µM
CCCCCCCCCCN1CCC(C(=O)CC)(c2cccc(O)c2)CC1,IC50,Opioid receptor [2],500 µM
CCC(=O)C1(c2cccc(O)c2)CCN(CC)CC1,IC50,Opioid receptor [2],400 µM
c1cc(N2CCN(CC3CC3)CC2)c2occc2c1,Ki,[1],0.02 µM
CCCCCN1CCN(c2cccc3ccoc23)CC1,pKa,[4],> 7.7
same,Ki,[1],0.00081 µM
CCN1CCN(c2cccc3c2OCCO3)CC1,pKa,[4],8
same,pKa,[7],8.34
CCCCCCCN1CCC(C(=O)OCC)(c2ccccc2)CC1,IC50,Opioid receptor [2],0.055 µM
CN1CCN(c2cccc3ccoc23)CC1,pKa,[4],7.54
same,Ki,[1],0.0081 µM
CCCCCCCCN1CCC(C(=O)OCC)(c2ccccc2)CC1,IC50,Opioid receptor [2],0.03 µM
c1cc(N2CCN(C3CCCCC3)CC2)c2occc2c1,Ki,[1],0.064 µM
c1cc2c(c(N3CCN(CCC4CCCCC4)CC3)c1)OCCO2,Ki,[1],0.00025 µM
c1cc(N2CCNCC2)c2occc2c1,pKa,[4],8.44
same,pKa,[7],8.84
same,Ki,[1],0.013 µM
CCCCCCCCCN1CCC(C(=O)CC)(c2cccc(O)c2)CC1,IC50,Opioid receptor [2],700 µM
CCCCCN1CCN(c2cccc3c2OCCO3)CC1,pKa,[5],8.27
same,pKa,[4],8.06
same,pKa,[7],8.41
same,Ki,[1],0.0022 µM
same,pKa,[8],7.91
same,pKa,[9],8.21
CCCCCN1CCC(C(=O)OCC)(c2ccccc2)CC1,IC50,Opioid receptor [2],0.4 µM
c1cc2c(c(N3CCNCC3)c1)OCCO2 [ELTOPRAZINE],pKa,[5],8.99
same,pKa,[4],8.74
same,pKa,[7],9.18
same,pKa,[8],8.55
same,pKa,[9],8.88
CN1CCN(c2cccc3c2OCCO3)CC1,pKa,[4],7.77
same,pKa,[7],8.07
same,Ki,[1],0.024 µM
CCCCCCCCN1CCN(c2cccc3c2OCCO3)CC1,Ki,[1],0.00061 µM
CCN1CCN(c2cccc3ccoc23)CC1,pKa,[4],7.79
same,Ki,[1],0.023 µM
Clc1cccc(N2CCNCC2)c1 [CHLOROPHENYLPIPERAZINE],pKa,[5],8.6
same,pKa,[4],8.36
same,Ki,[6],0.2 µM
same,pKa,[7],8.72
same,pKa,[8],8.12
same,pKa,[9],8.46
CCCCCCN1CCN(c2cccc3c2OCCO3)CC1,Ki,[1],0.0005 µM
